Experimental data published in PubChem BioAssay AID1259407 (Chemical Carcinogenesis Research Information System (CCRIS), 2018).
Activity calls are given as the source filed them. The rule behind the calls is not given here.

Tested on: CCRIS mutagenicity, Ames/micronucleus/aberration tests
Experiment: CCRIS mutagenicity studies
Conditions: Test System: AMES SALMONELLA TYPHIMURIUM, Method: STANDARD PLATE

Measured: mutagenic call

CN(C)CCc1cc(O)ccc1CNc1ccccn1
inactive: Strain/Indicator: TA97, Metabolic Activation: NONE inactive; negative | Strain/Indicator: TA97, Metabolic Activation: RAT, LIVER, S-9, AROCLOR 1254 inactive; negative | Strain/Indicator: TA98, Metabolic Activation: NONE inactive; negative | Strain/Indicator: TA98, Metabolic Activation: RAT, LIVER, S-9, AROCLOR 1254 inactive; negative | Strain/Indicator: TA100, Metabolic Activation: NONE inactive; negative | Strain/Indicator: TA100, Metabolic Activation: RAT, LIVER, S-9, AROCLOR 1254 inactive; negative | Strain/Indicator: TA102, Metabolic Activation: NONE inactive; negative | Strain/Indicator: TA102, Metabolic Activation: RAT, LIVER, S-9, AROCLOR 1254 inactive; negative
